The target in test [1] is T1, human recombinant adrenergic α2C receptor (Homo sapiens, UniProt P18825).
T1 construct: expressed in transfected cells; host or cells: insect Sf9 cells
T1 sequence (P18825 1-462): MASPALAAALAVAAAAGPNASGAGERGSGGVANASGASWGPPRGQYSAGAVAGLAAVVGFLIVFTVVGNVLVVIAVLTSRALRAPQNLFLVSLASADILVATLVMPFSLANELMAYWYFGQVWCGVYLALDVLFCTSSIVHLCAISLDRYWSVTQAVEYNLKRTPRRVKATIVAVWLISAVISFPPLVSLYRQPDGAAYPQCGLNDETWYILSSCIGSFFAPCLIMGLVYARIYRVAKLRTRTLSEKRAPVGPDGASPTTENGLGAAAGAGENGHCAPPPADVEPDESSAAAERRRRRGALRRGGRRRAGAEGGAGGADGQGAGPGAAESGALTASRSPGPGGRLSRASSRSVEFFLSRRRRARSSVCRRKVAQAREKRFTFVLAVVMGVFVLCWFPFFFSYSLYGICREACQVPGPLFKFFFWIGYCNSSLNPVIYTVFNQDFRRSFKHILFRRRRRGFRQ
In words: Adrenergic α2C radioligand binding assay. To be noted: [3H]MK-912 specific binding, read-out: Percent Inhibition of ligand binding, Adrenergic (0.1 μM ligand conc.) α2C. The procedure:
To evaluate in radioligand binding assays the activity of compounds of the invention, human recombinant adrenergic α2C receptor expressed in insect Sf9 cells [Uhlen, S et al., J. Pharmacol. Exp. Ther. (1994), 271:1558] in a modified Tris-HCl buffer (50 mM Tris-HCl, pH 7.4, 12.5 mM MgCl2, 2 mM EDTA) was used. Compounds of the invention were incubated with 1 nM [^3H]MK-912 for 60 min. at 25° C. Non-specific binding was estimated in the presence of 10 μM WB-4101. Receptor proteins were filtered and washed, the filters were then counted to determine [^3H]MK-912 specifically bound. Compounds were screened at 1 μM or lower, using 1% DMSO as vehicle. Compounds of the invention were tested in this biochemical assay. Biochemical assay results for representative compounds were presented as the percent inhibition of specific binding in Table 3.

Test [2] addresses T2, rat adrenergic α1A receptor (Rattus norvegicus, UniProt P43140).
T2 construct: rat adrenergic α1A receptor obtained from Wistar Rat submaxillary glands; from tissue; host or cells: Wistar Rat submaxillary glands
T2 sequence (P43140 1-466): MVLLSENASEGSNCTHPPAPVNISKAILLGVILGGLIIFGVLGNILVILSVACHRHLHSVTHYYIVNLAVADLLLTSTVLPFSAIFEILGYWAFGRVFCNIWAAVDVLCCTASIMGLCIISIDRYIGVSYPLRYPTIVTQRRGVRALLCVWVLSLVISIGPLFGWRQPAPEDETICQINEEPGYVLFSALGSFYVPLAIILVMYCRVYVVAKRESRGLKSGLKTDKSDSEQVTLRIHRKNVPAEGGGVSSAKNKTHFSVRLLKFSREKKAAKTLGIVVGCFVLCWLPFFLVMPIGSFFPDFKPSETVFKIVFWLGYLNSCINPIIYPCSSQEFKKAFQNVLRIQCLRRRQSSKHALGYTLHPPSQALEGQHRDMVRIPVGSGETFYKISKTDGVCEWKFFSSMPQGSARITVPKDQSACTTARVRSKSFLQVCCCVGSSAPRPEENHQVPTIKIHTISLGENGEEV
In words: Adrenergic α1A radioligand binding assay. As to conditions: [3H]Prozosin specific binding, read-out: Percent Inhibition of ligand binding, Adrenergic (0.1 μM ligand conc.) α1A. The procedure: To evaluate in radioligand binding assays the activity of compounds of the invention, rat adrenergic α1A receptor obtained from Wistar Rat submaxillary glands (Michel, A. D. et al., Br. J. Pharmacol. (1989), 98:883] in a modified Tris-HCl buffer (50 mM Tris-HCl buffer, pH 7.4, 0.5 mM EDTA) was used. Compounds of the invention were incubated with 0.25 nM [^3H]Prozosin for 60 min. at 25° C. Non-specific binding was estimated in the presence of 10 μM phentolamine. Receptor proteins were filtered and washed, the filters were then counted to determine [^3H]Prozosin specifically bound. Compounds of the invention were screened at 1 μM or lower, using 1% DMSO as vehicle. Compounds of the invention were tested in this biochemical assay. Biochemical assay results for representative compounds were presented as the percent inhibition of specific binding in Table 3.

The results in this text go back to US9271971B2, “Pyrido[3,4-B]indoles and methods of use” (Medivation Technologies, Inc., priority 2009, dated 2016).

A word on the inhibition: it is the drop in the measured response relative to a control, in per cent. On to `C/C(=C\n1c2c(c3cc(C)ccc31)C1CCN(C2)C1)c1ccc(Cl)cc1` (stereo not drawn) [Compound 32], for which the figures for the inhibition at 0.1 µM in test [1] and in test [2] were 39% and 36%, respectively.

Turning to `C/C(=C\n1c2c(c3cc(C)ccc31)C1CCN(C2)C1)c1ccc(Cl)cc1Cl` (stereo not drawn) [Compound 33], the inhibition at 0.1 µM in test [1] was determined as 16%; in test [2] it was 3%.

With `Cc1ccc2c(c1)c1c(n2C(=O)Cc2ccc(Cl)cc2)CN2CCC1C2` (stereo not drawn) [Compound 36], the inhibition at 0.1 µM in test [1] was 24%; in test [2], -18%.

Regarding `C/C(=C\n1c2c(c3cc(C)ccc31)C1CCN(C2)C1)c1ccccc1F` (stereo not drawn) [Compound 38], the inhibition at 0.1 µM in test [1] worked out at 13%; in test [2], 14%.

In the case of `C/C(=C\n1c2c(c3cc(C)ccc31)C1CCN(C2)C1)c1ccncc1` (stereo not drawn) [Compound 44], the inhibition at 0.1 µM in test [1] is 7%; in test [2], -7%.

Take `COc1ccc(/C(C)=C/n2c3c(c4cc(C)ccc42)C2CCN(C3)C2)cc1` (stereo not drawn) [Compound 45]: the inhibition at 0.1 µM in test [1] came out at 3%; in test [2] it was 24%.
